Data reported in US8148334B2, “Peptides with capacity for binding with interleukine 10 (IL-10)” (Proyecto de Biomedicina Cima, S.L., priority 2007, dated 2012).
Read-outs that look alike come from different tables or passages of the source. Each block holds one compound with its values, some of them ahead of it. Where a SMILES comes first, the peptide text is derived from it. Where no end group is shown, it is not given here.

What was measured:
[1] = Solubilization of 1 mg/mL peptides in culture medium, DMSO or urea; assay type: physicochemical; conditions: for Resuspension with DMSO: DMSO 2% of final volume of 1 mg/mL stock and clean medium, after sonication
Experimental: In order to measure the capacity of the peptides to inhibit IL-10, it is necessary for them to be in solution in the culture medium in which the proliferation assay with MC/9 cells is conducted. To that end, an attempt was first made to dissolve the peptides in complete medium at the concentration of 1 mg/mL. Due to the fact that, of the 26 peptides of Table 1, only 10 were soluble and 2 were partially soluble in these conditions (Table 3), it was necessary to improve the solubility of the remaining peptides by adding different proportions of dimethyl sulfoxide (DMSO) or urea. Other solubilizing agents, such as guanidine hydrochloride, ethanol, methanol, isopropanol, dimethylformamide (DMF), acetone, acetonitrile, ammonia and acetic acid were also tested, but due to the fact that they were not very effective or toxic for the cells, their use was discarded. For the purpose of limiting as much as possible the toxicity of DMSO or urea, the concentration of both agents in the culture medium was kept as low as possible compatible with the in vitro assay. Thus, the maximum concentration of solubilizing agent to be added which allows conducting the in vitro proliferation assay of MC/9 cells was first determined. As indicated above, 1, 0.5, 0.1, 0.05, 0.01, 0.005 and 0.001% acetic acid, ammonia, DMSO, DMF, acetone, acetonitrile, isopropanol, methanol and ethanol and 2, 1, 0.5, 0.250, 0.125, 0.062 and 0.031 M urea and guanidine hydrochloride were tested.
Guanidine hydrochloride was very toxic in all tested concentrations. […] In the case of urea, the limit concentration was 125 mM, and for ammonia, 0.2% (maximum tested). In relation to the alcohols, they were compatible up to 1% (maximum) and acetone and acetonitrile seemed to induce MC/9 cell proliferation. DMSO: • The resuspension of the peptides identified as SEQ ID NO: 5, SEQ ID NO: 6, SEQ ID NO: 9, SEQ ID NO: 12, SEQ ID NO: 15 and SEQ ID NO: 16 with DMSO (2% of the final volume of the 1 mg/mL stock) and clean medium was tested. After subjecting them to sonication, all of them were still cloudy, except the peptide identified as SEQ ID NO: 16. Methanol/Ethanol • To dissolve peptides using these alcohols, it is necessary to use them at 100% and at this concentration they are toxic for MC/9 cells. They are toxic even at 70%. Urea • The peptides identified as SEQ ID NO: 6, SEQ ID NO: 16, SEQ ID NO: 17, SEQ ID NO: 18 and SEQ ID NO: 20 were dissolved in 8 M urea (final concentration 0.8 M in 1 mg/mL) and complete medium. Urea is relatively toxic (cpm without urea 1.128, with 120 mM urea 109, with 80 mM 308 and with 20 mM 800, but the window is maintained).
Of the total of 39 peptides indicated, 11 (in bold print) could not be solubilized with any of the indicated conditions, therefore they could not be tested in the in vitro assay.
The peptides which could not be solubilized with any of the tested conditions are indicated in bold print. part S: partially soluble; S: soluble; I: insoluble

MC/9 cells = experiment: Toxicity: inhibition of mGM-CSF-induced MC/9 cell proliferation; assay type: cell-based, mouse; conditions: inhibition of proliferation induced by 0.01 ng/mL mGM-CSF
Description: The addition of peptides with the capacity to inhibit the activity of IL-10 to the MC/9 cell culture, to which exogenous IL-10 has been added, has the effect of inhibiting the proliferation of these cells due to the fact that IL-10 promotes the proliferation thereof. However, the addition of a peptide or any component to the culture (used to improve peptide solubility) which was toxic for MC/9 cells would also have the effect of inhibiting cell proliferation. […] For this purpose, an assay in parallel of the peptides using mouse granulocyte-monocyte colony-stimulating factor (mGM-CSF) (which also promotes MC/9 cell proliferation) instead of IL-10 was conducted. The concentration of mGM-CSF used was 0.01 ng/mL. In this case, IL-4 was not used as co-stimulus. The toxicity was expressed as the percentage of inhibition of the proliferation induced by mGM-CSF.
In the case of the peptides dissolved in urea, when analyzing both the IL-10 inhibition and the toxicity, negative, positive controls and controls with antibody with the concentrations of urea present in the peptide sample (120 mM, 80 mM and 20 mM) as well as controls without urea were included. The percentage of inhibition at each concentration of peptide was calculated comparing the cpm values of the sample with the values of the controls which contained the same concentration of urea.

[2] = 1 mg/mL peptide, read-out: Solubility, Complete medium
[3] = 1 mg/mL peptide, read-out: Solubility, 0.8 M UREA

Solubility, 0.8 M UREA ([1]; 1 mg/mL peptide): Turbidity | solubility [1, 2]: < 1000 µg/mL
Compound: LFLLSGVFVPDLHEG [compound 24]

solubility [1, 3]: > 1000 µg/mL | solubility [1, 2]: < 1000 µg/mL
Compound: FSWYFRHHRLMVAGP [compound 18]

Resuspension with DMSO [1]: still cloudy
Compound: GVLSSIFSWRLVALH [P18]

Compound: FSWYFRHHRLMVAGP [P24]
toxicity for MC/9 cells (MC/9 cells): partially toxic

solubility [1, 2]: > 1000 µg/mL
Compound: GRFRHYSMLRHHSIR [compound 19]

Solubility, 2% DMSO ([1]; 1 mg/mL peptide): Turbidity | solubility [1, 3]: > 1000 µg/mL | solubility [1, 2]: < 1000 µg/mL
Compound: CC(C)[C@H](NC(=O)[C@H](C)NC(=O)[C@@H](NC(=O)[C@@H]1CCCN1C(=O)[C@H](Cc1c[nH]cn1)NC(=O)[C@H](CCCNC(=N)N)NC(=O)[C@H](CCCNC(=N)N)NC(=O)[C@H](Cc1ccccc1)NC(=O)[C@H](Cc1c[nH]cn1)NC(=O)[C@H](Cc1ccccc1)NC(=O)[C@H](CS)NC(=O)[C@H](CCCNC(=N)N)NC(=O)[C@H](Cc1c[nH]cn1)NC(=O)[C@@H](N)CS)C(C)C)C(=O)N[C@@H](Cc1ccccc1)C(=O)O [compound 6] (H-CHRCFHFRRHPVAVF-OH; N-terminus and C-terminus assumed)

Solubility, 0.8 M UREA ([1]; 1 mg/mL peptide): Turbidity | Solubility, 2% DMSO ([1]; 1 mg/mL peptide): Turbidity | solubility [1, 2]: < 1000 µg/mL
Compound: WAYYHAGHSSFAVWT [compound 9]

Compound: HGFFAGGLAHWHGHR [P26]
toxicity for MC/9 cells (MC/9 cells): partially toxic

solubility [1, 2]: > 1000 µg/mL
Compound: GAGVLTPFTWRRFHM [compound 10]

Resuspension with DMSO [1]: still cloudy
Compound: GRVPSMFGGHFFFSR [P21]

solubility [1, 3]: > 1000 µg/mL | solubility ([1]; 1 mg/mL peptide, read-out: Solubility, 2% DMSO): < 1000 µg/mL | solubility [1, 2]: < 1000 µg/mL
Compound: WSLLRIVYNRHSHSK [compound 16]

solubility [1, 2]: > 1000 µg/mL
Compound: TRHRHVPRFLPLRHV [compound 8]

solubility [1, 3]: < 1000 µg/mL | solubility [1, 2]: < 1000 µg/mL
Compound: RGWILDVVYLYPGPL [compound 17]

Resuspension with DMSO [1]: still cloudy
Compound: WAYYHAGHSSFAVWT [P14]

solubility [1, 3]: > 1000 µg/mL | solubility [1, 2]: < 1000 µg/mL
Compound: HGFFAGGLAHWHGHR [compound 20]

Solubility, 0.8 M UREA ([1]; 1 mg/mL peptide): Turbidity | solubility [1, 2]: < 1000 µg/mL
Compound: CC(C)C[C@H](NC(=O)CNC(=O)[C@H](C)NC(=O)[C@H](CS)NC(=O)[C@@H](NC(=O)[C@H](Cc1ccccc1)NC(=O)[C@H](Cc1ccccc1)NC(=O)[C@H](CO)NC(=O)[C@@H](N)CCC(=O)O)C(C)C)C(=O)N[C@@H](CS)C(=O)N[C@@H](CCCNC(=N)N)C(=O)N[C@@H](CC(C)C)C(=O)N[C@@H](CCC(N)=O)C(=O)N1CCC[C@H]1C(=O)N[C@@H](Cc1ccc(O)cc1)C(=O)O [compound 23] (H-ESFFVCAGLCRLQPY-OH; N-terminus and C-terminus assumed)

solubility [1]: insoluble | Resuspension with DMSO [1]: still cloudy
Compound: CC(C)[C@H](NC(=O)[C@H](C)NC(=O)[C@@H](NC(=O)[C@@H]1CCCN1C(=O)[C@H](Cc1c[nH]cn1)NC(=O)[C@H](CCCNC(=N)N)NC(=O)[C@H](CCCNC(=N)N)NC(=O)[C@H](Cc1ccccc1)NC(=O)[C@H](Cc1c[nH]cn1)NC(=O)[C@H](Cc1ccccc1)NC(=O)[C@H](CS)NC(=O)[C@H](CCCNC(=N)N)NC(=O)[C@H](Cc1c[nH]cn1)NC(=O)[C@@H](N)CS)C(C)C)C(=O)N[C@@H](Cc1ccccc1)C(=O)O [P9] (H-CHRCFHFRRHPVAVF-OH; N-terminus and C-terminus assumed)

Solubility, 0.8 M UREA ([1]; 1 mg/mL peptide): Turbidity | solubility [1, 2]: < 1000 µg/mL
Compound: CC[C@H](C)[C@H](NC(=O)[C@H](CC(C)C)NC(=O)[C@H](Cc1ccccc1)NC(=O)CNC(=O)[C@@H](NC(=O)[C@H](CC(C)C)NC(=O)[C@H](C)NC(=O)[C@H](CO)NC(=O)[C@H](CS)NC(=O)CN)C(C)C)C(=O)N[C@@H](CC(C)C)C(=O)N[C@@H](CC(C)C)C(=O)N[C@@H](CS)C(=O)N[C@@H](CS)C(=O)N[C@@H](CCSC)C(=O)O [compound 26] (H-GCSALVGFLILLCCM-OH; N-terminus and C-terminus assumed)

Resuspension with DMSO [1]: still cloudy
Compound: RFYHADMLLRHVLMM [P8]

solubility [1, 2]: > 1000 µg/mL
Compound: ARFPKELRGSVRSAH [compound 14]

solubility [1, 2]: > 1000 µg/mL
Compound: RKLRPHWLHFHPVAV [compound 1]

solubility [1, 2]: < 1000 µg/mL
Compound: FRSFHYHTGRWHWLP [compound 22]

solubility [1, 2]: > 1000 µg/mL
Compound: RMLGFMSGSWRTPVR [compound 11]

Solubility, 0.8 M UREA ([1]; 1 mg/mL peptide): Turbidity | Solubility, 2% DMSO ([1]; 1 mg/mL peptide): Turbidity | solubility [1, 2]: < 1000 µg/mL
Compound: RFYHADMLLRHVLMM [compound 5]

Solubility, 0.8 M UREA ([1]; 1 mg/mL peptide): Turbidity | solubility [1, 2]: < 1000 µg/mL
Compound: CC(C)C[C@H](NC(=O)[C@H](Cc1ccccc1)NC(=O)[C@H](C)NC(=O)[C@H](CC(C)C)NC(=O)[C@@H](NC(=O)[C@H](Cc1ccccc1)NC(=O)[C@H](CC(C)C)NC(=O)[C@H](Cc1c[nH]cn1)NC(=O)[C@H](CS)NC(=O)[C@H](CS)NC(=O)[C@H](CCCNC(=N)N)NC(=O)[C@H](Cc1c[nH]cn1)NC(=O)[C@H](C)N)[C@@H](C)O)C(=O)N[C@@H](Cc1ccccc1)C(=O)N[C@@H](C)C(=O)O [compound 21] (H-AHRCCHLFTLAFLFA-OH; N-terminus and C-terminus assumed)

solubility [1, 2]: < 1000 µg/mL
Compound: HRHFRWLNGMPRLLG [compound 25]

Solubility, 0.8 M UREA ([1]; 1 mg/mL peptide): Turbidity | Solubility, 2% DMSO ([1]; 1 mg/mL peptide): Turbidity | solubility [1, 2]: < 1000 µg/mL
Compound: GVLSSIFSWRLVALH [compound 12]

solubility [1, 2]: > 1000 µg/mL
Compound: HRWMPHVFAVRQGAS [compound 7]

solubility [1]: soluble
Compound: TRHRHVPRFLPLRHV [P13]

solubility [1, 2]: < 1000 µg/mL
Compound: PFVVSDIAFMGLFYD [compound 3]

solubility [1, 2]: > 1000 µg/mL
Compound: ARWMHRHHGWSDRHR [compound 2]

solubility [1, 2]: > 1000 µg/mL
Compound: IFRVLSRMLPGTSVI [compound 13]

solubility [1, 2]: > 1000 µg/mL
Compound: AKVPSFRRSSLGSVR [compound 4]

Solubility, 0.8 M UREA ([1]; 1 mg/mL peptide): Turbidity | Solubility, 2% DMSO ([1]; 1 mg/mL peptide): Turbidity | solubility [1, 2]: < 1000 µg/mL
Compound: GRVPSMFGGHFFFSR [compound 15]
